Source: patent US20100029615A1, “BENZIMIDAZOLE DERIVATIVES” (priority 2006, published 2010)
Where a name gives a salt, the structure may show the parent alone.

Target: T1, SMO (Mus musculus, UniProt P56726)
T1 construct: endogenous in cells; host or cells: C3H10T1/2 (ATCC #CCL-226)
Test: Smoothened (SMO)/Sonic Hedgehog (SHh) Transient Transcriptional Activation Assay (Gli-luciferase reporter in C3H10T1/2 cells)
Format: cell-based, murine
Details: C3H 10T1/2, 2 uM test compound, SHh 250 ng/ml, 20 hrs, read-out: SMO % inhibition at 2 uM
Procedure, shortened: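 Luminescence (Dual-Glo) measured after 20 h co-exposure at 37 °C to 250 ng/ml human SHh and compound at 2 uM down to 2 nM final. Cells were C3H10T1/2 carrying a transfected murine 10× Gli response-element luciferase construct with pEGFP, starved 20 h in 0.5% calf serum beforehand.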

T1 sequence (P56726 33-793): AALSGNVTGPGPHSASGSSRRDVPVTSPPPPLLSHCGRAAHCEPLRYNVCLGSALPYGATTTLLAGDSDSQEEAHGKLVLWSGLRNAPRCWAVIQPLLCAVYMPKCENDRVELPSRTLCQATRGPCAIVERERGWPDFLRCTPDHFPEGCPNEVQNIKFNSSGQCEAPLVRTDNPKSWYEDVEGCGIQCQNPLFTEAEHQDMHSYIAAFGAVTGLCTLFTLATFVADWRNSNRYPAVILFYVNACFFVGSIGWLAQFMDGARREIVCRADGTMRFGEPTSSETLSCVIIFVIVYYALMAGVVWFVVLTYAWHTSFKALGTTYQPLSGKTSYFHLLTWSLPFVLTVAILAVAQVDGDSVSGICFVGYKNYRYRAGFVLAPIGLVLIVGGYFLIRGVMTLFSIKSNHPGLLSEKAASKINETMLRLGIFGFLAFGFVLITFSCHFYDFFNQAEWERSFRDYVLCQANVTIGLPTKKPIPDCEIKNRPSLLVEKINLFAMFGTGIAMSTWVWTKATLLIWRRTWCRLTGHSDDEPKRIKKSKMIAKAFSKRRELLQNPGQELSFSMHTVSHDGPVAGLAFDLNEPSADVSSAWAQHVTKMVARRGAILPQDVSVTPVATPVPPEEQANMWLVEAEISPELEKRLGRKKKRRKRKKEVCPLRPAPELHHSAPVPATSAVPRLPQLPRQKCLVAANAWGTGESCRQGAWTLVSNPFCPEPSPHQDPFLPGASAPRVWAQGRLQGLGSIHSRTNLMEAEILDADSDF

inhibition at 2 µM [%] | SMILES
58 | CCn1c(C2CCCC(NC(=O)c3ccc4c(c3)OCCO4)C2)nc2ccccc21 (stereo not drawn) [Example 6, N-(3-(1-Ethyl-1H-benzo[d]imidazol-2-yl)cyclohexyl)-2,3-dihydrobenzo[b][1,4]dioxine-6-carboxamide]
107 | Cn1c([C@H]2CCC[C@@H](NC(=O)c3ccc4c(c3)OCCO4)C2)nc2ccccc21 [Example 3, N-((1R,3S)-3-(1-methyl-1H-benzo[d]imidazol-2-yl)cyclohexyl)-2,3-dihydrobenzo[b][1,4]dioxine-6-carboxamide]
71 | Cn1c([C@@H]2CCC[C@H](NC(=O)c3ccc4c(c3)OCCO4)C2)nc2ccccc21 [Example 21, N-((1S,3R)-3-(1-Methyl-1H-benzo[d]imidazol-2-yl)cyclohexyl)-2,3-dihydrobenzo[b](1,4]dioxine-6-carboxamide]
84 | COc1cc(OC)cc(C(=O)NC2CCCC(c3nc4cc(C)ccc4n3C)C2)c1 (stereo not drawn) [Example 27, N-(3-(1,5-Dimethyl-1H-benzo[d]imidazol-2-yl)cyclohexyl]-3,5-dimethoxybenzamide]

Same assay, conditions: C3H 10T1/2, 2 μM test compound, SHh 250 ng/ml, 20 hrs, read-out: SMO CELL % INHIBITION @ 2 μM

SMILES | inhibition at 2 µM [%]
CN1c2ccccc2OCC1CC(=O)NC1CCCC(c2nc3ccccc3[nH]2)C1 (stereo not drawn) [Example 94, N-[3-(1H-benzimidazol-2-yl)cyclohexyl]-2-(4-methyl-3,4-dihydro-2H-1,4-benzoxazin-3-yl)acetamide triflouroacetate] | 96
O=C(Cn1ncc2ccccc21)NC1CCCC(c2nc3ccccc3[nH]2)C1 (stereo not drawn) [Example 95, N-[3-(1H-benzimidazol-2-yl)cyclohexyl]-2-(1H-indazol-1-yl)acetamide triflouroacetate] | 20
O=C(N[C@@H]1CCC[C@@H](c2nc3ccccc3[nH]2)C1)c1ccc2c(c1)OCCO2 [Example 241] | 63
Cn1ccnc1-c1ccc(C(=O)NC2CCCC(c3nc4ccccc4[nH]3)C2)cc1 (stereo not drawn) [Example 159, N-[3-(1H-benzimidazol-2-yl)cyclohexyl]-4-(1-methyl-1H-imidazol-2-yl)benzamide triflouroacetate] | 78
O=C(CCc1nc2ccccc2[nH]1)NC1CCCC(c2nc3ccccc3[nH]2)C1 (stereo not drawn) [Example 148, 3-(1H-benzimidazol-2-yl)-N-[3-(1H-benzimidazol-2-yl)cyclohexyl]-propanamide triflouroacetate] | 50
O=C(NC1CCCC(c2nc3ccccc3[nH]2)C1)c1n[nH]c2ccccc12 (stereo not drawn) [Example 101, N-[3-(1H-benzimidazol-2-yl)cyclohexyl]-1H-indazole-3-carboxamide triflouroacetate] | 56

Continued, values first:

inhibition at 2 µM [%] | SMILES
81 | COc1cc(OC)cc(C(=O)N[C@@H]2CCCC(c3nc4cc(S(C)(=O)=O)ccc4[nH]3)C2)c1 (stereo in doubt) [Example 289, 3,5-dimethoxy-N-{(1R,3S)-3-[5-(methylsulfonyl)-1H-benzimidazol-2-yl]cyclohexyl} benzamide (+)-tartrate]
107 | COc1cc(OC)cc(C(=O)NC23CCCC(c4nc5cc(Cl)ccc5[nH]4)(C2)C3)c1 [Example 269, N-[5-(5-chloro-1H-benzimidazol-2-yl)bicyclo[3.1.1]hept-1-yl]-3,5-dimethoxybenz-amide]
101 | COc1cc(OC)cc(C(=O)N[C@@H]2CCC[C@H](c3nc4ccccc4n3C)C2)c1 [Example 167, 3,5-dimethoxy-N[(1R,3S)-3-(1-methyl-1H-benzimidazol-2-yl)cyclohexyl] benzamide HCl]
111 | O=C(N[C@@H]1CCC[C@H](c2nc3cc(C(F)(F)F)ccc3[nH]2)C1)c1ccc2c(c1)CNCC2 [Example 303, N-{(1R,3S)-3-[5-(trifluoromethyl)-1H-benzimidazol-2-yl]cyclohexyl}-1,2,3,4-tetrahydroiso-quinoline-7-carboxamide HCl]
81.2 | CN1C(=O)CCc2cc(C(=O)N[C@@H]3CCC[C@H](c4nc5cc(Cl)ccc5[nH]4)C3)ccc21 [Example 305, N-[(1R,3S)-3-(5-chloro-1H-benzimidazol-2-yl)cyclohexyl]-1-methyl-2-oxo-1,2,3,4-tetrahydroquino-line-6-carboxamide (+)-tartrate]
